Results as given in PubChem BioAssay (NCI).
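Cells were grown in 96-well plates and exposed to each compound for 48 hours at five concentrations; endpoints were interpolated linearly between bracketing concentrations, or set to the highest concentration if not reached. GI50 marks 50% less growth. TGI: concentration producing complete growth inhibition.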

What was measured:
Assay in all cases: NCI anticancer screen, dose series, 48 h
CAKI-1 renal = system: CAKI-1 renal
HCT-116 colon = system: HCT-116 colon
MALME-3M melanoma = system: MALME-3M melanoma
SK-MEL-5 melanoma = system: SK-MEL-5 melanoma
SK-OV-3 ovarian = system: SK-OV-3 ovarian
SNB-75 CNS = system: SNB-75 CNS
UACC-62 melanoma = system: UACC-62 melanoma
M14 melanoma = system: M14 melanoma
786-0 renal = system: 786-0 renal
A549 NSCLC = system: A549 NSCLC
SF-268 CNS = system: SF-268 CNS
MOLT-4 leukemia = system: MOLT-4 leukemia
HOP-62 NSCLC = system: HOP-62 NSCLC
IGROV1 ovarian = system: IGROV1 ovarian
SW-620 colon = system: SW-620 colon
MDA-MB-435 = system: MDA-MB-435
NCI-H23 lung = system: NCI-H23 lung
OVCAR-5 ovarian = system: OVCAR-5 ovarian
SNB-19 CNS = system: SNB-19 CNS
HOP-92 NSCLC = system: HOP-92 NSCLC
HCC-2998 colon = system: HCC-2998 colon
HT29 colon = system: HT29 colon
NCI-H522 lung = system: NCI-H522 lung
HS 578T breast = system: HS 578T breast
TK-10 renal = system: TK-10 renal
NCI-H226 lung = system: NCI-H226 lung
BT-549 breast = system: BT-549 breast
DU-145 prostate = system: DU-145 prostate
ACHN renal = system: ACHN renal
PC-3 prostate = system: PC-3 prostate
RXF 393 renal = system: RXF 393 renal
HL-60(TB) leukemia = system: HL-60(TB) leukemia
UACC-257 melanoma = system: UACC-257 melanoma
COLO 205 colon = system: COLO 205 colon
OVCAR-3 ovarian = system: OVCAR-3 ovarian
SF-295 CNS = system: SF-295 CNS
MDA-MB-231 breast = system: MDA-MB-231 breast
A498 renal = system: A498 renal
SR leukemia = system: SR leukemia
SN12C renal = system: SN12C renal
K-562 leukemia = system: K-562 leukemia
U251 CNS = system: U251 CNS
KM12 colon = system: KM12 colon
NCI-H460 lung = system: NCI-H460 lung
EKVX NSCLC = system: EKVX NSCLC
HCT-15 colon = system: HCT-15 colon
UO-31 renal = system: UO-31 renal
LOX IMVI melanoma = system: LOX IMVI melanoma
SF-539 CNS = system: SF-539 CNS
MCF7 breast = system: MCF7 breast
T-47D breast = system: T-47D breast
OVCAR-8 ovarian = system: OVCAR-8 ovarian
OVCAR-4 ovarian = system: OVCAR-4 ovarian
SK-MEL-28 melanoma = system: SK-MEL-28 melanoma
MDA-MB-468 breast = system: MDA-MB-468 breast
SK-MEL-2 melanoma = system: SK-MEL-2 melanoma

O=C(/C=C/c1ccccc1)c1nc2ccccc2n1Cc1ccc(Br)cc1
GI50 (CAKI-1 renal): 2.6 µM | TGI (CAKI-1 renal): 11.2 µM | GI50 (HCT-116 colon): 1.71 µM | TGI (HCT-116 colon): 3.16 µM | GI50 (MALME-3M melanoma): 1.94 µM | TGI (MALME-3M melanoma): 4.63 µM | GI50 (SK-MEL-5 melanoma): 2.44 µM | TGI (SK-MEL-5 melanoma): 6.95 µM | GI50 (SK-OV-3 ovarian): 13.2 µM | TGI (SK-OV-3 ovarian): 57.6 µM | GI50 (SNB-75 CNS): 3.83 µM | TGI (SNB-75 CNS): 22.1 µM | GI50 (UACC-62 melanoma): 1.85 µM | TGI (UACC-62 melanoma): 4.68 µM | GI50 (M14 melanoma): 2.16 µM | TGI (M14 melanoma): 4.77 µM | GI50 (786-0 renal): 1.79 µM | TGI (786-0 renal): 3.34 µM | GI50 (A549 NSCLC): 3.51 µM | TGI (A549 NSCLC): 20.4 µM | GI50 (SF-268 CNS): 6.92 µM | TGI (SF-268 CNS): > 100 µM | GI50 (MOLT-4 leukemia): 1.84 µM | TGI (MOLT-4 leukemia): 5.47 µM | GI50 (HOP-62 NSCLC): 2.21 µM | TGI (HOP-62 NSCLC): 5.09 µM | GI50 (IGROV1 ovarian): 2.32 µM | TGI (IGROV1 ovarian): 5.53 µM | GI50 (SW-620 colon): 2 µM | TGI (SW-620 colon): 4.09 µM | GI50 (MDA-MB-435): 2.25 µM | TGI (MDA-MB-435): 5.95 µM | GI50 (NCI-H23 lung): 2.01 µM | TGI (NCI-H23 lung): 4.29 µM | GI50 (OVCAR-5 ovarian): 2.2 µM | TGI (OVCAR-5 ovarian): 4.54 µM | GI50 (SNB-19 CNS): 1.81 µM | TGI (SNB-19 CNS): 3.64 µM | GI50 (HOP-92 NSCLC): 1.92 µM | TGI (HOP-92 NSCLC): 8.58 µM | GI50 (HCC-2998 colon): 1.83 µM | TGI (HCC-2998 colon): 3.42 µM | GI50 (HT29 colon): 2.91 µM | TGI (HT29 colon): 7.34 µM | GI50 (NCI-H522 lung): 1.84 µM | TGI (NCI-H522 lung): 4.04 µM | GI50 (HS 578T breast): 4.22 µM | TGI (HS 578T breast): 53.4 µM | GI50 (TK-10 renal): 2.57 µM | TGI (TK-10 renal): 7.63 µM | GI50 (NCI-H226 lung): 3.8 µM | TGI (NCI-H226 lung): 15.9 µM | GI50 (BT-549 breast): 1.93 µM | TGI (BT-549 breast): 4.7 µM | GI50 (DU-145 prostate): 3.96 µM | TGI (DU-145 prostate): 18.6 µM | GI50 (ACHN renal): 3.12 µM | TGI (ACHN renal): 10.1 µM | GI50 (PC-3 prostate): 3.14 µM | TGI (PC-3 prostate): 9.31 µM | GI50 (RXF 393 renal): 1.51 µM | TGI (RXF 393 renal): 2.84 µM | GI50 (HL-60(TB) leukemia): 1.61 µM | TGI (HL-60(TB) leukemia): 4.17 µM | GI50 (UACC-257 melanoma): 3.12 µM | TGI (UACC-257 melanoma): 11.9 µM | GI50 (COLO 205 colon): 2.36 µM | TGI (COLO 205 colon): 5 µM | GI50 (OVCAR-3 ovarian): 2.28 µM | TGI (OVCAR-3 ovarian): 5.56 µM | GI50 (SF-295 CNS): 2.22 µM | TGI (SF-295 CNS): 5.25 µM | GI50 (MDA-MB-231 breast): 2.26 µM | TGI (MDA-MB-231 breast): 5.16 µM | GI50 (A498 renal): 15.1 µM | TGI (A498 renal): 28.4 µM | GI50 (SR leukemia): 1.97 µM | TGI (SR leukemia): 6.01 µM | GI50 (SN12C renal): 3.46 µM | TGI (SN12C renal): 12.4 µM | GI50 (K-562 leukemia): 2.39 µM | TGI (K-562 leukemia): 6.6 µM | GI50 (U251 CNS): 1.65 µM | TGI (U251 CNS): 3.2 µM | GI50 (KM12 colon): 2.95 µM | TGI (KM12 colon): 10.2 µM | GI50 (NCI-H460 lung): 1.8 µM | TGI (NCI-H460 lung): 3.64 µM | GI50 (EKVX NSCLC): 2.75 µM | TGI (EKVX NSCLC): 8.44 µM | GI50 (HCT-15 colon): 1.67 µM | TGI (HCT-15 colon): 3.47 µM | GI50 (UO-31 renal): 1.46 µM | TGI (UO-31 renal): 2.97 µM | GI50 (LOX IMVI melanoma): 1.65 µM | TGI (LOX IMVI melanoma): 3.12 µM | GI50 (SF-539 CNS): 1.86 µM | TGI (SF-539 CNS): 3.54 µM | GI50 (MCF7 breast): 1.78 µM | TGI (MCF7 breast): 6.26 µM | GI50 (T-47D breast): 2.36 µM | TGI (T-47D breast): 10.2 µM | GI50 (OVCAR-8 ovarian): 2.84 µM | TGI (OVCAR-8 ovarian): 8.8 µM | GI50 (OVCAR-4 ovarian): 8.7 µM | TGI (OVCAR-4 ovarian): 81.5 µM | GI50 (SK-MEL-28 melanoma): 1.84 µM | TGI (SK-MEL-28 melanoma): 3.74 µM | GI50 (MDA-MB-468 breast): 1.89 µM | TGI (MDA-MB-468 breast): 3.81 µM | GI50 (SK-MEL-2 melanoma): 2.23 µM | TGI (SK-MEL-2 melanoma): 5.08 µM
